According to US8476267B2, “Imidazo-, pyrazolopyrazines and imidazotriazines and their use” (Bayer Intellectual Property GmbH, priority 2007, dated 2013):
Where a name gives a salt, the structure may show the parent alone.

Molecular target: GSK3β (Homo sapiens (Human), UniProt P49841)
Experiment: In vitro biochemical GSK3β inhibition assay (fluorescence, NADH-coupled)
Conditions: 5 nM GSK3β, 40 μM substrate GSM, 50 μM ATP, 30° C., 2 hours
Method: The inhibitory activity of active substances is determined in a biochemical assay. The ingredients required for this purpose are mixed in a black 384-well microtiter plate with transparent base (from Greiner, catalog number 781092). The requirements in this connection for each well of the 384-well microtiter plate are 5 nM GSK3β (from Upstate, catalog number xy), 40 μM GSK3β substrate GSM (sequence H-RRRPASVPPSPSLSRHS-(pS)-HQRR, from Upstate, catalog number 2-533), 30 μM nicotinamide adenine dinucleotide NADH (Roche Diagnostics, catalog number 10107735), 50 μM adenosine triphosphate ATP (from Sigma, catalog number A7966) and 2 mM phosphoenolpyruvate (from Roche, catalog number 128112). The required reaction buffer in which the biochemical reaction takes place consists of 50 mM Trizma hydrochloride Tris-HCl pH: 7.5 (from Sigma, catalog number T3253), 5 mM magnesium chloride MgCl2 (from Sigma, catalog number M8266), 0.2 mM DL-dithiothreitol DTT (from Sigma, catalog number D9779), 2 mM ethylenediaminetetraacetic acid EDTA (from Sigma, catalog number E6758), 0.01% Triton X-100 (from Sigma, catalog number T8787) and 0.05% bovine serum albumin BSA (from Sigma, catalog number B4287).
Active substances are dissolved in dimethyl sulfoxide DMSO (from Sigma, catalog number D8418) in a concentration of 10 mM. Active substances are added in serial concentrations of 10 μM, 1 μM, 0.1 μM, 0.01 μM, 0.001 μM, 0.0001 μM, 0.00001 μM, 0.000001 μM to the mixtures of the biochemical reaction. As control, dimethyl sulfoxide is added instead of substance in a final concentration of 0.1%.
The reaction is incubated at 30° C. for 2 hours and then the resulting fluorescence is measured in a Tecan Safire-XFLUOR4 instrument, version V4.50 (serial number 12901300283) with the specifications: measurement mode—fluorescence measured from below, extinction wavelength 340 nm, emission wavelength 465 nm, slit width extinction 5 nm, slit width emission 5 nm, gain mode 120, delay 0 μs, number of light flashes per measurement 3, and an integration time of 40 μs.
The activity of the active substances is calculated in relation to these 0% and 100%.

Sequence of GSK3β (P49841 whole entry, species assumed): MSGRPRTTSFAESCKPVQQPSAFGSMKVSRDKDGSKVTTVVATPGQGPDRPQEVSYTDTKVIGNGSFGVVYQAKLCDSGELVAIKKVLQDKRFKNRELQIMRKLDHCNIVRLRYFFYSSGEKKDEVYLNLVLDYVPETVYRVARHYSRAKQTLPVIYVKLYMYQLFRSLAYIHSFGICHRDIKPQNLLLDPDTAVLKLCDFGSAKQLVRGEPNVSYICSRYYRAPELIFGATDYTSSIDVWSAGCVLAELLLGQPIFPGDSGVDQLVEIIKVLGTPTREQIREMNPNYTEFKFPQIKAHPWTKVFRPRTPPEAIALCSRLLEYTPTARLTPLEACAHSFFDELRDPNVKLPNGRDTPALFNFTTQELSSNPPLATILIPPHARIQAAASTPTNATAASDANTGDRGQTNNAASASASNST

Row | Structure (SMILES) | IC50 [nM]
1 | Cc1nc(C)n2nc(-c3ccccc3)nc(NCCNc3ccc(C#N)cn3)c12 [Example 9, 6-({2-[(5,7-Dimethyl-2-phenylimidazo[5,1-f][1,2,4]triazin-4-yl)amino]ethyl}amino)nicotinonitrile] | 310
2 | N#Cc1ccc(NCCNc2nc(-c3ccc(Cl)cc3Cl)cn3nc(C(=O)O)cc23)nc1 [Example 4, 4-({2-[(5-Cyanopyridin-2-yl)amino]ethyl}amino)-6-(2,4-dichlorophenyl)pyrazolo[1,5-a]pyrazine-2-carboxylic acid hydrochloride] | 21
3 | N#Cc1ccc(NCCNc2nc(-c3ccc(Cl)cc3Cl)cn3nc(CNC4CC4)cc23)nc1 [Example 58] | 80
4 | N#Cc1sc(NC2CCCN(c3nc(-c4ccc(Cl)cc4Cl)cn4nc(C(=O)O)cc34)C2)nc1N (stereo not shown) [Example 19] | 3
5 | CCOC(=O)c1cc2c(N3CCCC(Nc4nc(N)c(C(C)=O)s4)C3)nc(-c3ccc(Cl)cc3Cl)cn2n1 (stereo not shown) [Example 17, Ethyl 4-{3-[(5-acetyl-4-amino-1,3-thiazol-2-yl)amino]piperidin-1-yl}-6-(2,4-dichlorophenyl)pyrazolo[1,5-a]pyrazine-2-carboxylate trifluoroacetate] | 8
6 | CN1CCN(CCNC(=O)c2cc3c(NCCNc4ccc(C#N)cn4)nc(-c4ccc(Cl)cc4Cl)cn3n2)CC1 [Example 5] | 30
7 | N#Cc1sc(NCCNc2nc(-c3ccc(Cl)cc3Cl)cn3nc(C(=O)NCC(=O)O)cc23)nc1N [Example 24] | 5
